Assay results reported in patent publication US6989396B2, “Tropane alkaloid multidrug resistance inhibitors from Erythroxylum pervillei and use of the same” (The Board of Trustees of the University of Illinois, priority 2001, dated 2006).
Where “and” joins values, the source holds several entries; their conditions need not be identical. Equal values may be shown once. Read-outs that look alike come from different tables or passages of the source.

Tests used:
[1] = tested on: SKVLB (ovarian adenocarcinoma, multidrug resistance); assay: Multidrug resistance inhibition in SKVLB (pGp +ve); type: cell-based, human
[2] = tested on: SKOV3 (ovarian adenocarcinoma); assay: Cytotoxicity in ovarian adenocarcinoma SKOV3 (pGp -ve); type: cell-based
Description: (§1) Cytotoxicity assay. Compounds 1–9 were evaluated for cytotoxic activity against a panel of human cancer cell lines, including KB-V1 in the presence and absence of VLB, according to an established protocol (68).

LOX IMVI, melanoma = assay: In vitro multidrug resistance modulation (DINIB synergy): LOX IMVI; type: cell-based, human; details: increase of cytotoxicity of DINIB 1 × 10^−4 M; modulator μg/mL: verapamil 12.5, cyclosporin A 6.3, pervilleine B 12.5, C 3.1, D 50.0, F 25.0; <25 insignificant, >100 strong synergy
Text: (§2) Alkaloids 5–7 and 9 were further evaluated for their efficacy as potential modulators of P-glycoprotein. This assay assessed the ability of these test compounds to increase the cytotoxicity of an agent of the MDR phenotype {4,9-dihydro-3-iso-butyl-2-methyl-1-(p-nitrophenacyl)-4,9-dioxo-1H-naphth[2-3-d]imidazolium bromide (DINIB)}, compared with an agent not of the MDR phenotype (5-flurouracil), used as a negative control (73, 74).
(§3) In vitro multidrug resistance assay.

UO-31, renal = assay: In vitro multidrug resistance modulation (DINIB synergy): UO-31; type: cell-based, human; details: increase of cytotoxicity of DINIB 1 × 10^−4 M; modulator μg/mL: verapamil 12.5, cyclosporin A 6.3, pervilleine B 12.5, C 3.1, D 50.0, F 25.0; <25 insignificant, >100 strong synergy
Text: as §2, §3

HCT-15, colon = assay: In vitro multidrug resistance modulation (DINIB synergy): HCT-15; type: cell-based, human; details: increase of cytotoxicity of DINIB 1 × 10^−4 M; modulator μg/mL: verapamil 12.5, cyclosporin A 6.3, pervilleine B 12.5, C 3.1, D 50.0, F 25.0; <25 insignificant, >100 strong synergy
Text: as §2, §3

CAKI-1, renal = assay: In vitro multidrug resistance modulation (DINIB synergy): CAKI-1; type: cell-based, human; details: increase of cytotoxicity of DINIB 1 × 10^−4 M; modulator μg/mL: verapamil 12.5, cyclosporin A 6.3, pervilleine B 12.5, C 3.1, D 50.0, F 25.0; <25 insignificant, >100 strong synergy
Text: as §2, §3

[3] = tested on: SW626, human ovarian adenocarcinoma; assay: In vitro cytotoxicity, human tumor panel: SW626; type: cell-based; details: SW626, read-out: ED50 SW626
Description: as §1

Lu1, lung cancer = assay: In vitro cytotoxicity, human tumor panel: Lu1; type: cell-based; details: Homo sapiens, read-out: ED50 Lu1
Description: as §1

KB-V1, drug resistant KB = assay: In vitro cytotoxicity, human tumor panel: KB-V1 with or without vinblastine; type: cell-based; details: for IC50: Homo sapiens, KB-V1, drug-resistant KB assessed in the absence of vinblastine, read-out: ED50 KB-V1−; for ED50 KB-V1+: drug resistant KB assessed in presence of vinblastine (1 μg/mL)
Description: as §1

Col2, colon cancer = assay: In vitro cytotoxicity, human tumor panel: Col2; type: cell-based; details: Homo sapiens, read-out: ED50 Col2
Description: as §1

[4] = tested on: LNCaP, hormone-dependent prostate cancer; assay: In vitro cytotoxicity, human tumor panel: LNCaP; type: cell-based; details: Homo sapiens, LNCaP, read-out: ED50 LNCaP
Description: as §1

BC1, breast cancer = assay: In vitro cytotoxicity, human tumor panel: BC1; type: cell-based; details: Homo sapiens, read-out: ED50 BCI
Description: as §1

[5] = tested on: KB, oral epidermoid carcinoma; assay: In vitro cytotoxicity, human tumor panel: KB; type: cell-based; details: Homo sapiens, read-out: ED50 KB
Description: as §1

KB-8-5 cells [6] = assay: Reversal of MDR, cell survival assay: KB-8-5 with or without colchicine; type: cell-based, human; details: Homo sapiens
Description: (§4) Cytotoxic potential. The cytotoxic potential of test substances with KB-3, KB-V1 and KB-8-5 cells was determined as described previously (24). Briefly, various concentrations of test compounds (dissolved in 10 μl of 10% DMSO) were transferred to 96-well plates, and 190 μl aliquots of cell suspensions (5×10^4 cells/ml) were added to each well. The plates then were incubated for 72 hours at 37° C. (100% humidity with a 5% CO2 atmosphere in air), and 100 μl of cold 20% aqueous trichloroacetic acid were added to the growth medium in each well to fix the cells. The cultures were incubated at 4° C. for 30 minutes, washed, air-dried, stained with sulforhodamine B solution, and washed with 1% acetic acid. […] In each case, a zero-day control was performed by adding an equivalent number of cells to several wells and incubating at 37° C. for 30 minutes, and processing as described above. Optical density values obtained with the zero-day control were subtracted, and cell survival, relative to control (solvent-treated) cultures, was calculated. The cytotoxic potential of the compounds with CEM and CEM/VLB100 cells was determined as described by Beck et al. (30). Cells were grown in 24-well plates at a density of 5–6×10^5 cells/ml. At 48 hours, the cell number was determined using a Coulter Counter, with a channelizer to distinguish cells from debris.

KB-8-5 cells [7] = assay: In vivo hollow fiber test: KB-8-5; design: species or system NCr nu/nu mice
Description: (§5) In vivo hollow fiber test. […] Confluent monolayers of KB-3, KB-V1 or KB-8-5 cells were harvested, collected by centrifugation and resuspended in conditioned medium at a concentration of 7.5×10^5 cells/ml.
(§6) Test compounds were administrated once daily by intraperitoneal injection from day 3–6 after implantation. Body weights were measure daily.
(§7) After incubating at 37° C. for 4 hours, the culture medium was aspirated and the samples were washed twice with normal saline containing 2.5% protamine sulfate solution by overnight incubation at 4° C. […] The formazan was extracted from each sample with DMSO (250 μl/well) for 4 hours at room temperature on a rotation platform.

KB-V1 cells [8] = assay: In vivo hollow fiber test: KB-V1; design: species or system NCr nu/nu mice
Description: as §5, §6, §7

KB-V1 cells [9] = assay: Reversal of MDR, cell survival assay: KB-V1 with or without vinblastine; type: cell-based, human
Description: (§8) One part of a natural product drug discovery program involves monitoring the potential of plant extracts to reverse multiple drug resistance. […] To investigate the potential of plant extracts or compounds to reverse multidrug-resistance, KB-V1 cells are treated with different concentrations of plant extracts or compounds in the presence (1 μg/ml) or absence of vinblastine.
as §4

KB-3 cells = assay: Growth inhibitory potential (sulforhodamine B cell survival assay): KB-3; type: cell-based; details: Homo sapiens, KB3, 72 h, read-out: IC50 KB-3
Description: as §8
Cytotoxic potential. The cytotoxic potential of test substances with KB-3, KB-V1 and KB-8-5 cells was determined as described previously (24). Briefly, various concentrations of test compounds (dissolved in 10 μl of 10% DMSO) were transferred to 96-well plates, and 190 μl aliquots of cell suspensions (5×10^4 cells/ml) were added to each well. The plates then were incubated for 72 hours at 37° C. (100% humidity with a 5% CO2 atmosphere in air), and 100 μl of cold 20% aqueous trichloroacetic acid were added to the growth medium in each well to fix the cells. The cultures were incubated at 4° C. for 30 minutes, washed, air-dried, stained with sulforhodamine B solution, and washed with 1% acetic acid. Finally, 200 μl of 10 mM Tris base were added to each well and the optical densities were determined at 515 nm utilizing an ELISA plate reader. In each case, a zero-day control was performed by adding an equivalent number of cells to several wells and incubating at 37° C. for 30 minutes, and processing as described above. Optical density values obtained with the zero-day control were subtracted, and cell survival, relative to control (solvent-treated) cultures, was calculated. The cytotoxic potential of the compounds with CEM and CEM/VLB100 cells was determined as described by Beck et al. (30). Cells were grown in 24-well plates at a density of 5–6×10^5 cells/ml. At 48 hours, the cell number was determined using a Coulter Counter, with a channelizer to distinguish cells from debris.

CEM/VLB100 cells = assay: MDR reversal in drug-resistant human leukemia CEM/VLB100 cells; type: cell-based; details: Homo sapiens
Description: as §4

[10] = summation of single-agent inhibitions
[11] = vinblastine 100 μg/kg + reversing agent 0.136 mmol/kg

COc1cccc2c1C(=O)c1c(O)c3c(c(O)c1C2=O)C[C@@](O)(C(=O)CO)C[C@@H]3O[C@H]1C[C@H](N)[C@H](O)[C@H](C)O1 [adriamycin, reference compound]
IC50 ([1]; Homo sapiens, no adriamycin added, read-out: IC50 BSKVLB (pGp + ve)): 2.2 µM
IC50 ([2]; Homo sapiens, SK-OV-3; read-out: IC50 SKOV3 (pGp − ve)): 0.008 µM

cyclosporin A [reference compound]
synergy value at a 95% confidence level, LOX IMVI (LOX IMVI, melanoma): 72.9
synergy value at a 95% confidence level, UO-31 (UO-31, renal): 642.1
synergy value at a 95% confidence level, HCT-15 (HCT-15, colon): 719.1
synergy value at a 95% confidence level, CAKI-1 (CAKI-1, renal): 273.3

CN1[C@@H]2C[C@@H](OC(=O)Cc3ccccc3)C[C@H]1[C@H](O)[C@@H]2O [Compound 1, Tropane-3α,6β,7β-triol 3-phenylacetate]
IC50 [3]: > 20 µg/mL
IC50 (Lu1, lung cancer): > 20 µg/mL
IC50 (KB-V1, drug resistant KB): > 20 µg/mL
ED50 KB-V1+ (KB-V1, drug resistant KB): >20 µg/mL
IC50 (Col2, colon cancer): > 20 µg/mL
IC50 [4]: > 20 µg/mL
IC50 (BC1, breast cancer): > 20 µg/mL
melting point: 120 to 122 °C
IC50 [5]: > 20 µg/mL

COc1cc(C=CC(=O)O[C@H]2[C@@H](O)[C@@H]3C[C@H](OC(=O)c4cc(OC)c(OC)c(OC)c4)C[C@H]2[N+]3(C)[O-])cc(OC)c1OC (stereo partly drawn) [Compound 4, 3α-(3,4,5-trimethoxybenzoyloxy)-6β-(3,4,5-trimethoxycinnamoyloxy)-7β-hydroxytropane N-oxide]
IC50 [3]: > 20 µg/mL
IC50 (Lu1, lung cancer): > 20 µg/mL
IC50 (KB-V1, drug resistant KB): > 20 µg/mL
ED50 KB-V1+ (KB-V1, drug resistant KB): >20 µg/mL
IC50 (Col2, colon cancer): > 20 µg/mL
IC50 [4]: > 20 µg/mL
IC50 (BC1, breast cancer): > 20 µg/mL
IC50 ([1]; Homo sapiens, read-out: IC50 BSKVLB (pGp + ve)): > 10 µM
IC50 ([1]; read-out: IC50 SKVLB (pGp + ve), addition of adriamycin, Addition of 1 μm adriamycin): > 10 µM
melting point: 118 to 121 °C
IC50 ([2]; Homo sapiens, SK-OV-3, read-out: IC50 SKOV3 (pGp − ve)): > 10 µM
IC50 [5]: > 20 µg/mL

COc1ccc(CCN(C)CCCC(C#N)(c2ccc(OC)c(OC)c2)C(C)C)cc1OC (stereo not shown) [verapamil, reference compound]
IC50 (KB-8-5 cells [6]): > 44 µM
Calculated inhibition (vinblastine + reversing agent as single agents), KB-8-5, i.p. site (KB-8-5 cells [7]; [10]): 5.9%
Calculated inhibition (vinblastine + reversing agent as single agents), KB-8-5, s.c. site (KB-8-5 cells [7]; [10]): 3.7%
Observed inhibition from coadministration with vinblastine, KB-8-5, i.p. site (KB-8-5 cells [7]; [11]): 52 (P < 0.0001) %
Observed inhibition from coadministration with vinblastine, KB-8-5, s.c. site (KB-8-5 cells [7]; [11]): 11.7 (P = 0.06) %
Growth inhibition, single agent, KB-8-5, s.c. site (KB-8-5 cells [7]; vinblastine 100 μg/kg, reversing agents 0.136 mmol/kg): 1.4%
Growth inhibition, single agent, KB-8-5, i.p. site (KB-8-5 cells [7]; vinblastine 100 μg/kg, reversing agents 0.136 mmol/kg, i.p. injection once daily days 3–6): 4.7%
inhibition of cell growth when used in combination with vinblastine (KB-V1 cells [8]; KB-V1 or KB-8-5 cells in hollow fibers implanted into NCr nu/nu mice): less effective
Calculated inhibition (vinblastine + reversing agent as single agents), KB-V1, i.p. site (KB-V1 cells [8]; [10]): 7.4% and 6.2%
Calculated inhibition (vinblastine + reversing agent as single agents), KB-V1, s.c. site (KB-V1 cells [8]; [10]): 3.8% and 10.8%
Observed inhibition from coadministration with vinblastine, KB-V1, s.c. site (KB-V1 cells [8]; vinblastine 250 μg/kg + reversing agent 0.136 mmol/kg): 7.8 (P = 0.73) % and 13.6 (P = 0.098) %
Observed inhibition from coadministration with vinblastine, KB-V1, i.p. site (KB-V1 cells [8]; vinblastine 250 μg/kg + reversing agent 0.136 mmol/kg, i.p. injection once daily days 3–6): 60.3 (P < 0.0001) % and 56.6 (P < 0.0001) %
IC50 (KB-V1 cells [9]; Homo sapiens, KB-V1, 72 h, read-out: IC50 KB-V1 (+), presence of vinblastine (1 μg/ml), 72 hours): 0.79 µM
IC50 (KB-V1 cells [9]; Homo sapiens, KB-V1, 72 h, read-out: IC50 KB-V1 (−), absence of vinblastine, 72 hours): > 44 µM
IC50 (KB-V1 cells [9]; read-out: IC50 KB-V1 (−), absence of vinblastine, 72 hours): 44 µM
IC50 (KB-3 cells): 37 µM
IC50 (CEM/VLB100 cells; CEM/VLB100, 48 h, read-out: IC50 Modulator only): > 15 µM
IC50 (CEM/VLB100 cells; CEM/VLB100, read-out: IC50 (Modulator + Daunorubicin)): 0.5 µM
IC50 (CEM/VLB100 cells; CEM/VLB100, read-out: IC50 (Modulator + Vinblastine)): 0.025 µM
